Experimental findings from patent US4070401A, “Method for the preparation of a halogenated aromatic amine” (Mitsui Toatsu Chemicals Inc., priority 1972, dated 1978) are described below.

The data set is described as follows: Dissociation constant pKb of the amine additive (Table 1). It counts as physicochemical. The note with it: measured at 25° C. From the text:
The inventors have conducted an extensive study on suppression or inhibition of halogenation reaction which would occur during preparation of a halogenated aromatic amine. As a result, the inventors discovered that when a halogenated aromatic nitro compound is hydrogenated in the presence of a predetermined amount of a platinum catalyst together with an amine selected from the group consisting of an alkylmonoamine, an alicyclic amine and a polyalkylenepolyamine, the dehalogenation may be suppressed to a minimum. The present invention has been completed on the basis of this discovery. The alkylmonoamine, alicyclic amine and polyalkylenepolyamine have common properties that they are an organic nitrogen-containing base having a dissociation constant pKb lower than 4.2. The dissociation constant herein described means that which is defined according to the dissociation equilibrium of the usual acid or base, i.e., when an organic nitrogen-containing base is expressed by RN, the dissociation equilibrium of RN is expressed by a formula
RN + H2 O .revreaction. RNH^+ + OH^-
and the dissociation constant is defined as follows [formula] where [ ]means activity.
Though the dissociation constant pKb is generally more or less varied with temperature, the pKb value is measured at 25° C herein.

For the compound `CC(C)N` [isopropylamine], the “Dissociation Constant pKb” value is reported as 3.4. Take `CN` [methylamine]: the “Dissociation Constant pKb” value is given as 3.4.
